Source: patent publication US10662203B2, “Pyrido[2,3-b]indole compounds for the treatment and prophylaxis of bacterial infection” (Hoffmann-La Roche Inc., priority 2017, dated 2020)
Converted amounts (≈) assume the structure as drawn.

What was measured:
[1] = test system: A. baumannii (ATCC17978); test: 50% growth inhibitory concentration (IC50) determination assay; assay type: cell-based; conditions: Acinetobacter baumannii, ATCC17978, A. baumannii ATCC17978; Iso-Sensitest broth; 0.098 = detection limit
Method in brief: (§1)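 Compounds were two-fold serially diluted from 50 to 0.097 μM final in Iso-Sensitest broth, inoculated to ~5×10^5 CFU/mL and incubated at 35±2° C. Growth was followed by OD at 600 nm every 20 minutes for 16 h.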

[2] = Lyophilisation solubility assay (LYSA); assay type: physicochemical; conditions: phosphate buffer, pH 6.5, aqueous buffer, thermodynamic from solid, 0.05 M phosphate buffer, HPLC-UV
Method in brief: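 Read-out is HPLC-UV of the filtered solution and its 1/10 dilution. The dried residue of a 10 mM DMSO stock was redissolved in 0.05 M pH 6.5 phosphate buffer, then stirred 1 h, shaken 2 h and held overnight. Run in duplicate.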

[3] = Cytotoxicity assay (HepG2, CellTiter-Blue cell viability); assay type: cell-based; conditions: human; HepG2 cells, 3 days treatment; "*": the detection limit; read-out: CC50
Description: The cytotoxicity of compounds of present invention was assessed by HepG2 assay. HepG2 cells (ATCC HB-8065™) were seeded into 96-well plates (1.2×10^4 cells per well) and treated with compounds for 3 days, cell viability was measured at day 3 post compound treatment using the CellTiter-Blue® Cell Viability Assay (Promega, Cat. No. G8082). 20 μL of Cell titer blue buffer were added to each well of the cells, which were incubated for 3 hours at 37° C., and the fluorescence value was measured by a plate reader (Molecular Device SpectraMax M2). The CC50 value of each compound is plotted with GraphPad Prism using four parameter logistic equation.

[4] = test system: K. pneumoniae (ATCC10031); test: 50% growth inhibitory concentration (IC50) determination assay; assay type: cell-based; conditions: Klebsiella pneumoniae, Iso-Sensitest broth, 0.098 = detection limit
Method in brief: as §1

[5] = test system: S. aureus (ATCC29213); test: as above; assay type: cell-based; conditions: Staphylococcus aureus, Iso-Sensitest broth, 0.098 = detection limit
Method in brief: as §1

| Structure (SMILES) | IC50 [1] | solubility thermodynamic [2] | CC50 at 3 days [3] | IC50 [4] | IC50 [5] |
| --- | --- | --- | --- | --- | --- |
| CNc1cc(F)c(F)c2c1[nH]c1ncc(-c3cnc4c(c3)c(=O)c(C(=O)O)cn4NCCOC)c(N3CC[C@H]4CN(C)C[C@H]43)c12 (relative stereo) [Example 5.01, 6-[4-[cis-5-methyl-2,3,3a,4,6,6a-hexahydropyrrolo[2,3-c]pyrrol-1-yl]-5,6-difluoro-8-(methylamino)-9H-pyrido[2,3-b]indol-3-yl]-1-(2-methoxyethylamino)-4-oxo-1,8-naphthyridine-3-carboxylic acid] | 0.19 µM | 425 µg/mL (≈ 687 µM) | 43500 nM | – | – |
| CNc1cc(F)c(F)c2c1[nH]c1ncc(-c3cnc4c(c3)c(=O)c(C(=O)O)cn4C)c(N3CCCC3CN(C)C)c12 (stereo not drawn) [Example 1.12] | 0.294 µM | 321 µg/mL (≈ 572 µM) | 39200 nM | < 0.098 µM | 0.11 µM |
| CNc1cc(F)c(F)c2c1[nH]c1ncc(-c3cnc4c(c3)c(=O)c(C(=O)O)cn4CC(C)(C)N)c(N3CCOCC3)c12 [Example 1.38] | 0.883 µM | 15 µg/mL (≈ 26 µM) | > 100000 nM | < 0.098 µM | 0.181 µM |
| CNc1cc(F)c(F)c2c1[nH]c1ncc(-c3cnc4c(c3)c(=O)c(C(=O)O)cn4C)c(N3CCOC(CN(C)C)C3)c12 (stereo not drawn) [Example 1.61] | 0.817 µM | 600 µg/mL (≈ 1040 µM) | > 100000 nM | < 0.098 µM | 0.139 µM |
| CNc1cc(F)cc2c1[nH]c1ncc(-c3cnc4c(c3)c(=O)c(C(=O)O)cn4N3CCOCC3)c(N3CCOCC3)c12 [Example 1.71] | 0.923 µM | 11 µg/mL (≈ 19.2 µM) | > 100000 nM | < 0.098 µM | < 0.098 µM |
| CNc1cc(F)cc2c1[nH]c1ncc(-c3cnc4c(c3)c(=O)c(C(=O)O)cn4C)c(N3CCC(N(C)C)C3)c12 (stereo not drawn) [Example 1.75] | 0.108 µM | 152 µg/mL (≈ 287 µM) | 68500 nM | < 0.098 µM | 0.108 µM |
| CNc1c(F)c(F)cc2c1[nH]c1ncc(-c3cnc4c(c3)c(=O)c(C(=O)O)cn4C)c(N3CCOC(CN(C)C)C3)c12 (stereo not drawn) [Example 1.78] | 0.326 µM | 530 µg/mL (≈ 918 µM) | 42500 nM | < 0.098 µM | 0.343 µM |
| CNc1cc(F)cc2c1[nH]c1ncc(-c3cnc4c(c3)c(=O)c(C(=O)O)cn4C)c(N3CCOCC(CN(C)C)C3)c12 (stereo not drawn) [Example 1.90] | 0.411 µM | 700 µg/mL (≈ 1220 µM) | > 100000 nM | < 0.098 µM | 0.216 µM |
| CNc1cc(F)cc2c1[nH]c1ncc(-c3cnc4c(c3)c(=O)c(C(=O)O)cn4C)c(N3CCCC(CN(C)C)C3)c12 (stereo not drawn) [Example 1.94] | 0.155 µM | 301 µg/mL (≈ 540 µM) | 38700 nM | < 0.098 µM | < 0.098 µM |
| CCNc1cc(F)c(F)c2c1[nH]c1ncc(-c3cnc4c(c3)c(=O)c(C(=O)O)cn4C)c(N3CCC(CN(C)C)C3)c12 (stereo not drawn) [Example 1.106] | 0.244 µM | 19 µg/mL (≈ 33 µM) | 91300 nM | < 0.098 µM | < 0.098 µM |
| CNc1cc(F)c(F)c2c1[nH]c1ncc(-c3cnc4c(c3)c(=O)c(C(=O)O)cn4C)c(N3CCC(CN(C)C)C3)c12 (stereo not drawn) [Example 1.135] | 0.153 µM | 266 µg/mL (≈ 474 µM) | 29300 nM | < 0.098 µM | < 0.098 µM |
| CNc1cc(Cl)cc2c1[nH]c1ncc(-c3cnc4c(c3)c(=O)c(C(=O)O)cn4C)c(N3CCOC(CN(C)C)C3)c12 (stereo not drawn) [Example 1.138] | 0.302 µM | 91 µg/mL (≈ 158 µM) | 47300 nM | < 0.098 µM | < 0.098 µM |
| CCN(CC)CC1CN(c2c(-c3cnc4c(c3)c(=O)c(C(=O)O)cn4C)cnc3[nH]c4c(NC)cc(F)c(F)c4c23)CCO1 (stereo not drawn) [Example 1.149] | 0.362 µM | 530 µg/mL (≈ 875 µM) | 66600 nM | < 0.098 µM | < 0.098 µM |
| [2H]C([2H])([2H])Nc1cc(F)c(F)c2c1[nH]c1ncc(-c3cnc4c(c3)c(=O)c(C(=O)O)cn4C)c(N3CCC[C@H]3CN(C)C)c12 [Example 1.161] | 0.202 µM | > 830 µg/mL | > 100000 nM | < 0.098 µM | 0.155 µM |
| CNc1cc(F)cc2c1[nH]c1ncc(-c3cnc4c(c3)c(=O)c(C(=O)O)cn4C)c(N3CCC[C@H]3CN(C)C)c12 [Example 1.162] | 0.283 µM | 695 µg/mL (≈ 1280 µM) | 67600 nM | < 0.098 µM | 0.162 µM |
| CNc1cc(F)c(F)c2c1[nH]c1ncc(-c3cnc4c(c3)c(=O)c(C(=O)O)cn4C)c(N3CC[C@@H](CN4CCCC4)C3)c12 [Example 1.173] | 0.216 µM | 106 µg/mL (≈ 180 µM) | 44900 nM | < 0.098 µM | < 0.098 µM |

| Structure (SMILES) | IC50 [1] | solubility thermodynamic [2] | CC50 at 3 days [3] | IC50 [4] | IC50 [5] |
| --- | --- | --- | --- | --- | --- |
| CNc1cc(F)c(F)c2c1[nH]c1ncc(-c3cnc4c(c3)c(=O)c(C(=O)O)cn4NC)c(N3CCOC(CN(C)C)C3)c12 (stereo not drawn) [Example 1.181] | 0.916 µM | 70 µg/mL (≈ 118 µM) | > 100000 nM | < 0.098 µM | 0.444 µM |
| CNc1cc(F)c(F)c2c1[nH]c1ncc(-c3cnc4c(c3)c(=O)c(C(=O)O)cn4C)c(N3CCC(N(C)C)CC3)c12 [Example 1.182] | 0.423 µM | 147 µg/mL (≈ 262 µM) | 91700 nM | < 0.098 µM | 0.177 µM |
| CNc1cc(F)cc2c1[nH]c1ncc(-c3cnc4c(c3)c(=O)c(C(=O)O)cn4C)c(N3CCN(C)CC3)c12 [Example 1.184] | 0.148 µM | 52 µg/mL (≈ 101 µM) | 28700 nM | < 0.098 µM | < 0.098 µM |
| CNc1cc(F)c(F)c2c1[nH]c1ncc(-c3cnc4c(c3)c(=O)c(C(=O)O)cn4NC)c(N3CCCC(CN(C)C)C3)c12 (stereo not drawn) [Example 1.186] | 0.236 µM | 104 µg/mL (≈ 176 µM) | 45600 nM | < 0.098 µM | < 0.098 µM |
| CNc1cc(F)cc2c1[nH]c1ncc(-c3cnc4c(c3)c(=O)c(C(=O)O)cn4C)c(N3CC[C@@H]4C(CCN4C)C3)c12 (stereo partly drawn) [Example 1.188] | 0.307 µM | 20 µg/mL (≈ 36 µM) | 51600 nM | < 0.098 µM | 0.232 µM |
| CNc1cc(F)c(F)c2c1[nH]c1ncc(-c3cnc4c(c3)c(=O)c(C(=O)O)cn4NC)c(N3CCCC(N(C)C)C3)c12 (stereo not drawn) [Example 1.191] | 0.197 µM | 181 µg/mL (≈ 314 µM) | 29100 nM | < 0.098 µM | 0.195 µM |
| CNc1cc(F)c(F)c2c1[nH]c1ncc(-c3cnc4c(c3)c(=O)c(C(=O)O)cn4NC)c(N3CC4[C@H](CCN4C)C3)c12 (stereo partly drawn) [Example 1.193] | 0.096 µM | 16 µg/mL (≈ 27.8 µM) | > 100000 nM | < 0.098 µM | < 0.098 µM |
| CNc1cc(F)c(F)c2c1[nH]c1ncc(-c3cnc4c(c3)c(=O)c(C(=O)O)cn4NC)c(N3CCC[C@H]3CN(C)C)c12 [Example 1.217] | 0.187 µM | 190 µg/mL (≈ 330 µM) | 27800 nM | < 0.098 µM | 0.12 µM |
| CNc1cc(F)c(F)c2c1[nH]c1ncc(-c3cnc4c(c3)c(=O)c(C(=O)O)cn4C)c(N3CC4CN(C)C[C@@H]4C3)c12 (stereo partly drawn) [Example 1.227] | 0.294 µM | 12 µg/mL (≈ 21.4 µM) | 28000 nM | < 0.098 µM | 0.132 µM |
| CNc1cc(F)c(F)c2c1[nH]c1ncc(-c3cnc4c(c3)c(=O)c(C(=O)O)cn4C)c(N3CCC4(CCN(C)C4)C3)c12 (stereo not drawn) [Example 1.229] | 0.297 µM | 12 µg/mL (≈ 20.9 µM) | 53100 nM | < 0.098 µM | < 0.098 µM |
| CNc1cc(F)c(F)c2c1[nH]c1ncc(-c3cnc4c(c3)c(=O)c(C(=O)O)cn4C)c(N3CCC4(CCCN4C)CC3)c12 [Example 1.230] | 0.376 µM | 19 µg/mL (≈ 32.3 µM) | > 100000 nM | < 0.098 µM | 0.099 µM |
| CNc1cc(F)c(F)c2c1[nH]c1ncc(-c3cnc4c(c3)c(=O)c(C(=O)O)cn4C)c(N3CC[C@H](N(C)C)C3)c12 [Example 1.254] | 0.164 µM | 23 µg/mL (≈ 42 µM) | 36100 nM | < 0.098 µM | < 0.098 µM |
| CNc1cc(F)c(Cl)c2c1[nH]c1ncc(-c3cnc4c(c3)c(=O)c(C(=O)O)cn4NC)c(N3CC[C@H]4CN(C)CC43)c12 (stereo partly drawn) [Example 1.268] | 0.065 µM | 24 µg/mL (≈ 40.6 µM) | 33400 nM | < 0.098 µM | < 0.098 µM |
| CNc1cc(F)cc2c1[nH]c1ncc(-c3cnc4c(c3)c(=O)c(C(=O)O)cn4C)c(N3CCO[C@@H](CN(C)C)C3)c12 [Example 3.02A] | 0.268 µM | 480 µg/mL (≈ 858 µM) | > 100000 nM | < 0.098 µM | < 0.098 µM |
| CNc1cc(F)cc2c1[nH]c1ncc(-c3cnc4c(c3)c(=O)c(C(=O)O)cn4C)c(N3CCO[C@H](CN(C)C)C3)c12 [Example 3.02B] | 0.444 µM | 455 µg/mL (≈ 813 µM) | > 100000 nM | < 0.098 µM | < 0.098 µM |
